Test results from patent publication US10479780B2, “Aminopyrazole derivatives” (Chugai Seiyaku Kabushiki Kaisha, priority 2015, dated 2019).

Columns and labels:
Type in all cases: biochemical
[1] = biological target: T1, human Src enzyme (Homo sapiens, UniProt P12931); test: Src enzyme inhibitory activity (time-resolved fluorometry, biotinylated peptide phosphorylation); conditions: read-out: SRC_IC50
T1 construct: purchased Carna Biosciences, Inc. 08-173
In short: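 Compounds were tested for blocking tyrosine phosphorylation of a biotinylated peptide substrate by recombinant human Src. Phosphorylated product was quantified by time-resolved fluorometry using europium cryptate and XL665 conjugates, and IC50 was calculated against the compound-free control.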

[2] = biological target: T2, human Lck enzyme (Homo sapiens, UniProt P06239); test: Lck enzyme inhibitory activity (time-resolved fluorometry, biotinylated peptide phosphorylation); conditions: read-out: LCK_IC50
T2 construct: purchased Carna Biosciences, Inc. 08-170
In short: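 Readout pairs a europium cryptate-labelled anti-phosphotyrosine antibody with XL665-streptavidin, measured by time-resolved fluorescence. IC50 derived from percent inhibition against untreated controls.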

[3] = biological target: T3, human Yes1 enzyme (Homo sapiens, UniProt P07947); test: Yes1 enzyme inhibitory activity (time-resolved fluorometry, biotinylated peptide phosphorylation); conditions: read-out: YES_IC50
T3 construct: made in house
In short: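 Inhibition was expressed against a compound-free control to give IC50, using TR-FRET read-out (Eu-cryptate anti-pTyr antibody, streptavidin-XL665).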

T1 sequence (P12931 whole entry): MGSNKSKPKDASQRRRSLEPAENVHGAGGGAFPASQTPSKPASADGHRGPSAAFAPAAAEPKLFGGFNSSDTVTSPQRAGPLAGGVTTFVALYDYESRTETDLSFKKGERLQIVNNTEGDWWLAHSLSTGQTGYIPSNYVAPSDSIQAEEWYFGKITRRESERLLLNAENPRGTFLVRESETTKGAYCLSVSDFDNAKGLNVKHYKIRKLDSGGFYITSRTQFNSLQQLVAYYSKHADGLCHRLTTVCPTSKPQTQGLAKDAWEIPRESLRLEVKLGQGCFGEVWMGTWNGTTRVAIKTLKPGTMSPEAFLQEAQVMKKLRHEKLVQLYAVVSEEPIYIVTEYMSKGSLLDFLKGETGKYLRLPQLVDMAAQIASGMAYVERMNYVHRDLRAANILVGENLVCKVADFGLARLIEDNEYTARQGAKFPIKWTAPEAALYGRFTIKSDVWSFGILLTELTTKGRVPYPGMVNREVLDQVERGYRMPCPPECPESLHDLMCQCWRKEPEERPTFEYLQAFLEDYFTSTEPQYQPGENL
T2 sequence (P06239 whole entry): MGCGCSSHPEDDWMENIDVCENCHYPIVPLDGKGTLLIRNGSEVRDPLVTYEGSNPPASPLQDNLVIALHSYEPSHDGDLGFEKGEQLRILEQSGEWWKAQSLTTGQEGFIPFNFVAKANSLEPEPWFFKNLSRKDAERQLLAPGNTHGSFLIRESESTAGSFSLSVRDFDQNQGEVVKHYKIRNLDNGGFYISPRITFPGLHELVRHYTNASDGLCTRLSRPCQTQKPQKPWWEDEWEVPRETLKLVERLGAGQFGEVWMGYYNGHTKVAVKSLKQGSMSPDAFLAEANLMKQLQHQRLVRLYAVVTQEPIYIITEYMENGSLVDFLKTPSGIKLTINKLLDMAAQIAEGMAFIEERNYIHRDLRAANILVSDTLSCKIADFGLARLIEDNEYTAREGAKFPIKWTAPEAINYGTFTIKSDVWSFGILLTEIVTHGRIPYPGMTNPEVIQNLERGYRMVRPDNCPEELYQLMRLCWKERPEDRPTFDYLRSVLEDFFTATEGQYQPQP
T3 sequence (P07947 whole entry): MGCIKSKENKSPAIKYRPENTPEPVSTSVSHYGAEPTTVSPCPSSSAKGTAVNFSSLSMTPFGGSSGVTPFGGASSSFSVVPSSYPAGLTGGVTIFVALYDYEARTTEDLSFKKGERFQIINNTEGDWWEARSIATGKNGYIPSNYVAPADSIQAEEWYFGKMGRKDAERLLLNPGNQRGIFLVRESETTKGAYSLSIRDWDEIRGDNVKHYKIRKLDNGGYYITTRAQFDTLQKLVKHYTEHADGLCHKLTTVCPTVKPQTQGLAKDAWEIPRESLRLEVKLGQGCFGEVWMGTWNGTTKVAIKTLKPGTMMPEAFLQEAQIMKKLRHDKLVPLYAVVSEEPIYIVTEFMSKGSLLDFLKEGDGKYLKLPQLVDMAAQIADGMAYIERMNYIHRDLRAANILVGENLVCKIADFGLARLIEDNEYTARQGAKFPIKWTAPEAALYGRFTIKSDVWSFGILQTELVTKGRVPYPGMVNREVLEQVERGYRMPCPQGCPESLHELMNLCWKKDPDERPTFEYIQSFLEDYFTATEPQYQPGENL

Row | Structure (SMILES) | IC50 [1] [nM] | IC50 [2] [nM] | IC50 [3] [nM]
1 | Cc1cc(-n2ncc(C(=O)c3cc4cc(OC5CCN(C(C)C)CC5)c(N5C(=O)NC(C)(C)C5=O)cc4[nH]3)c2N)ccc1Oc1ccccc1F [Example 5-1-180, 3-[2-[5-amino-1-[4-(2-fluorophenoxy)-3-methylphenyl]pyrazole-4-carbonyl]-5-(1-propan-2-ylpiperidin-4-yl)oxy-1H-indol-6-yl]-5,5-dimethylimidazolidine-2,4-dione] | 95 | 6.3 | 0.35
2 | Cc1cc(-n2ncc(C(=O)c3cc4cc(OC(F)F)c(N5CCC(N6CCOCC6)CC5)cc4[nH]3)c2N)ccc1Oc1ccccc1F [Example 5-1-181, [5-amino-1-[4-(2-fluorophenoxy)-3-methylphenyl]pyrazol-4-yl]-[5-(difluoromethoxy)-6-(4-morpholin-4-ylpiperidin-1-yl)-1H-indol-2-yl]methanone] | 390 | 41 | 1.4
3 | Cc1cc(-n2ncc(C(=O)c3cc4cc(OC5CCN(C(C)C)CC5)c(N5CCC(N6CCOCC6)CC5)cc4[nH]3)c2N)ccc1Oc1ccccc1F [Example 5-1-182, [5-amino-1-[4-(2-fluorophenoxy)-3-methylphenyl]pyrazol-4-yl]-[6-(4-morpholin-4-ylpiperidin-1-yl)-5-(1-propan-2-ylpiperidin-4-yl)oxy-1H-indol-2-yl]methanone] | 24 | 2.7 | 0.17
4 | Cc1cc(Oc2c(F)cccc2F)ncc1-n1ncc(C(=O)c2cc3cc(OC4CCN(C(C)C)CC4)c(N)cc3[nH]2)c1N [Example 5-1-183, [5-amino-1-[6-(2,6-difluorophenoxy)-4-methylpyridin-3-yl]pyrazol-4-yl]-[6-amino-5-(1-propan-2-ylpiperidin-4-yl)oxy-1H-indol-2-yl] methanone] | 4.9 | 2.8 | 0.44
5 | Cc1cc(Oc2c(F)cccc2F)ncc1-n1ncc(C(=O)c2cc3cc(OC4CCN(C(C)C)CC4)c(NS(C)(=O)=O)cc3[nH]2)c1N [Example 5-1-184, N-[2-[5-amino-1-[6-(2,6-difluorophenoxy)-4-methylpyridin-3-yl]pyrazole-4-carbonyl]-5-(1-propan-2-ylpiperidin-4-yl)oxy-1H-indol-6-yl] methanesulfonamide] | 11 | 2.6 | 0.43

These reach a lower IC50 [1]. Values come first.

Row | IC50 [1] [nM] | IC50 [2] [nM] | IC50 [3] [nM] | Structure (SMILES)
6 | 3.2 | 2.3 | 0.62 | Cc1cc(Oc2c(F)cccc2F)ncc1-n1ncc(C(=O)c2cc3cc(OC4CCN(C(C)C)CC4)c(N4CCN(S(C)(=O)=O)CC4)cc3[nH]2)c1N [Example 5-1-187, [5-amino-1-[6-(2,6-difluorophenoxy)-4-methylpyridin-3-yl]pyrazol-4-yl]-[6-(4-methylsulfonylpiperazin-1-yl)-5-(1-propan-2-ylpiperidin-4-yl)oxy-1H-indol-2-yl]methanone]
7 | 2.5 | 1.7 | 0.36 | Cc1cc(Oc2c(F)cccc2F)ncc1-n1ncc(C(=O)c2cc3cc(OC4CCN(C(C)C)CC4)c(N4CCOCC4)cc3[nH]2)c1N [Example 5-1-185, [5-amino-1-[6-(2,6-difluorophenoxy)-4-methylpyridin-3-yl]pyrazol-4-yl]-[6-morpholin-4-yl-5-(1-propan-2-ylpiperidin-4-yl)oxy-1H-indol-2-yl]methanone]
8 | 1.9 | 1.3 | 0.28 | Cc1cc(Oc2c(F)cccc2F)ncc1-n1ncc(C(=O)c2cc3cc(OC4CCN(C(C)C)CC4)c(N4CCOC4=O)cc3[nH]2)c1N [Example 5-1-186, 3-[2-[5-amino-1-[6-(2,6-difluorophenoxy)-4-methylpyridin-3-yl]pyrazole-4-carbonyl]-5-(1-propan-2-ylpiperidin-4-yl)oxy-1H-indol-6-yl]-1,3-oxazolidin-2-one]
